Results published in patent US20120238549A1, “Nuclear Hormone Receptor Modulators” (ABBOTT LABORATORIES, priority 2011, published 2012).

Biological target: T1, Glucocorticoid Receptor (GR) (Homo sapiens, UniProt P04150)
T1 construct: purchased Invitrogen P2893
T1 sequence (P04150 1-777): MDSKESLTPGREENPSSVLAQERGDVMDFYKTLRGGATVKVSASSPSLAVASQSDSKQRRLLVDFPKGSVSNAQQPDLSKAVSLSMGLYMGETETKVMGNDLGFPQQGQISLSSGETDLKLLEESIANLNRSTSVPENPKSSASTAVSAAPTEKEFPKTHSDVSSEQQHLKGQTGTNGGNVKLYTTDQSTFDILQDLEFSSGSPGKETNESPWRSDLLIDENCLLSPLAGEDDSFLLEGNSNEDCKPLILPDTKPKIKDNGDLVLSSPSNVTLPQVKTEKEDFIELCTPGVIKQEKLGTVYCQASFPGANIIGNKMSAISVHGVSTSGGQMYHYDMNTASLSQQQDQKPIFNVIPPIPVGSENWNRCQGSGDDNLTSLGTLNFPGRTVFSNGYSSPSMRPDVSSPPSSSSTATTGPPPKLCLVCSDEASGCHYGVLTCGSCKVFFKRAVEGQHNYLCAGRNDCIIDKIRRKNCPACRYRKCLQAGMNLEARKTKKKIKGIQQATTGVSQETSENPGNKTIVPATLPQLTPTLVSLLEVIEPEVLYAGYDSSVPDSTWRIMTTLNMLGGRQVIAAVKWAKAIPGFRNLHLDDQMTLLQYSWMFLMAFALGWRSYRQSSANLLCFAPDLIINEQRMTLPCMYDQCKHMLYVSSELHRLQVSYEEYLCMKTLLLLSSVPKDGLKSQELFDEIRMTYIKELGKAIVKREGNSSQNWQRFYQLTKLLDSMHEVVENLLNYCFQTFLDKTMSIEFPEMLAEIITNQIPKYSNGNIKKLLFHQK
Assay: GR Florescence Polarization Assay (PolarScreen Glucocorticoid Receptor Competitor Assay, Red)
Conditions: Fluorescense polarization binding ranges; competition with fluorescent glucocorticoid, incubated overnight at 4° C.
Procedure: GR Florescence Polarization Assay Florescence polarization assays were carried out using the PolarScreen™ Glucocorticoid Receptor Competitor Assay, Red from Invitrogen (P2893). The assay buffer was prepared according to the manufacturer's protocol and used to dilute the fluorescent glucocorticoid and GR. Compounds were prepared and serial diluted 1:4 in DMSO. Compound, fluorescent glucocorticoid and GR were added in a final volume of 20 μL and incubated overnight at 4° C. Fluorescent polarization was measured on the Perkinelmer Envision®.

SMILES	IC50
CC[C@@]1(O)CC[C@@]2(Cc3ccccc3)c3ccc(C(=O)Nc4ncccc4C)cc3CCC[C@H]2C1 [Example 73]	< 100 nM
CC[C@@]1(O)CC[C@@]2(Cc3ccccc3)c3ccc(C(=O)Nc4nnnn4C)cc3CCC[C@H]2C1 [Example 78]	< 100 nM
CC[C@@]1(O)CC[C@@]2(Cc3ccccc3)c3ccc(C(=O)Nc4ccc(-c5ccn[nH]5)nc4C)cc3CCC[C@H]2C1 [Example 86, (7aS,9R,11aS)-11a-Benzyl-9-ethyl-9-hydroxy-6,7,7a,8,9,10,11,11a-octahydro-5H-dibenzo[a,c]cycloheptene-3-carboxylic acid [2-methyl-6-(2H-pyrazol-3-yl)-pyridin-3-yl]-amide]	< 100 nM
CC[C@@]1(O)CC[C@@]2(Cc3ccccc3)c3ccc(C(=O)Nc4cccnc4C)cc3C(=O)CC[C@H]2C1 (racemic) [Example 23, (7aS,9R,11aS)-11a-Benzyl-9-ethyl-9-hydroxy-5-oxo-6,7,7a,8,9,10,11,11a-octahydro-5H-dibenzo[a,c]cycloheptene-3-carboxylic acid (2-methyl-pyridin-3-yl)-amide; compound with (7aR,9S,11aR)-11a-benzyl-9-ethyl-9-hydroxy-5-oxo-6,7,7a,8,9,10,11,11a-octahydro-5H-dibenzo[a,c]cycloheptene-3-carboxylic acid (2-methyl-pyridin-3-yl)-amide]	< 100 nM
CC[C@@]1(O)CC[C@@]2(Cc3ccccc3)c3ccc(C(=O)Nc4cc(C)nn4C)cc3CCC[C@H]2C1 [Example 76]	< 100 nM
Cc1ncccc1NC(=O)c1ccc2c(c1)CCC[C@@H]1C[C@](O)(CC#N)CC[C@]21Cc1ccccc1 [Example 67]	100 to 1000 nM
CC[C@@]1(O)CC[C@@]2(CC)c3ccc(C(=O)Nc4cccnc4C)cc3CCC[C@H]2C1 [Example 47]	< 100 nM
CC[C@]12CC[C@](C)(O)C[C@H]1CCCc1cc(C(=O)Nc3cccnc3C)ccc12 (single isomer, unassigned) [Example 59]	1000 to 10000 nM
CCC[C@@]1(O)CC[C@@]2(CC(F)(F)F)c3ccc(C(=O)Nc4cccnc4C)cc3CCC[C@H]2C1 (racemic) [Example 52]	< 100 nM
C#C[C@]1(O)CC[C@@]2(Cc3ccccc3)c3ccc(C(=O)Nc4cccnc4C)cc3CCC[C@H]2C1 (racemic) [Example 32, (7aS,9S,11aS)-11a-Benzyl-9-ethynyl-9-hydroxy-6,7,7a,8,9,10,11,11a-octahydro-5H-dibenzo[a,c]cycloheptene-3-carboxylic acid (2-methyl-pyridin-3-yl)-amide; compound with (7aR,9R,11aR)-11a-benzyl-9-ethynyl-9-hydroxy-6,7,7a,8,9,10,11,11a-octahydro-5H-dibenzo[a,c]cyclo heptene-3-carboxylic acid (2-methyl-pyridin-3-yl)-amide]	< 100 nM
CC[C@@]1(O)CC[C@@]2(Cc3ccccc3)c3ccc(C(=O)Nc4cccnc4C)cc3CCC[C@H]2C1.CC[C@]1(O)CC[C@]2(Cc3ccccc3)c3ccc(C(=O)Nc4cccnc4C)cc3CCC[C@@H]2C1 [Example 12, (7aS,9R,11aS)-11a-Benzyl-9-ethyl-9-hydroxy-6,7,7a,8,9,10,11,11a-octahydro-5H-dibenzo[a,c]cycloheptene-3-carboxylic acid (2-methyl-pyridin-3-yl)-amide; compound with (7aR,9S,11aR)-11a-benzyl-9-ethyl-9-hydroxy-6,7,7a,8,9,10,11,11a-octahydro-5H-dibenzo[a,c]cycloheptene-3-carboxylic acid (2-methyl-pyridin-3-yl)-amide]	< 100 nM

Results, then the molecule that gave them:

IC50	SMILES
< 100 nM	CC[C@@]12CC[C@](O)(COCC(F)(F)F)C[C@@H]1CCCc1cc(C(=O)Nc3cccnc3C)ccc12 (racemic) [Example 92, (7aS,9R,11aR)-11a-ethyl-9-hydroxy-9-(2,2,2-trifluoro-ethoxymethyl)-6,7,7a,8,9,10,11,11a-octahydro-5H-dibenzo[a,c]cycloheptene-3-carboxylic acid (2-methyl-pyridin-3-yl)-amide: compound with (7aR,9S,11aS)-11a-ethyl-9-hydroxy-9-(2,2,2-trifluoro-ethoxymethyl)-6,7,7a,8,9,10,11,11a-octahydro-5H-dibenzo[a,c]cycloheptene-3-carboxylic acid (2-methyl-pyridin-3-yl)-amide]
< 100 nM	Cc1ncccc1NC(=O)c1ccc2c(c1)CCC[C@@H]1C[C@@](O)(C(F)(F)F)CC[C@@]21Cc1ccccc1 [Example 106, (7aR,9R,11aS)-11a-Benzyl-9-hydroxy-9-trifluoromethyl-6,7,7a,8,9,10,11,11a-octahydro-5H-dibenzo[a,c]cycloheptene-3-carboxylic acid (2-methyl-pyridin-3-yl)-amide]
< 100 nM	CC[C@@]1(O)CC[C@@]2(Cc3ccccc3)c3ccc(C(=O)Nc4cccc(N)c4)cc3CCC[C@H]2C1 [Example 142, (7aS,9R,11aS)-11a-Benzyl-9-ethyl-9-hydroxy-6,7,7a,8,9,10,11,11a-octahydro-5H-dibenzo[a,c]cycloheptene-3-carboxylic acid (3-amino-phenyl)-amide]
< 100 nM	CCC[C@@]1(O)CC[C@@]2(CC)c3ccc(C(=O)Nc4cccnc4C)cc3OCC[C@H]2C1 (racemic) [Example 119, (7aS,9R,11aR)-11a-Ethyl-9-hydroxy-N-(2-methylpyridin-3-yl)-9-propyl-6,7,7a,8,9,10,11,11a-octahydrodibenzo[b,d]oxepine-3-carboxamide; compound with (7aR,9S,11aS)-11a-ethyl-9-hydroxy-N-(2-methylpyridin-3-yl)-9-propyl-6,7,7a,8,9,10,11,11a-octahydrodibenzo[b,d]oxepine-3-carboxamide]
100 to 1000 nM	Cc1ncccc1NC(=O)c1ccc2c(c1)CCC[C@H]1C[C@](O)(C(F)(F)F)CC[C@]21Cc1ccccc1 [Example 107, (7aS,9S,11aR)-11a-Benzyl-9-hydroxy-9-trifluoromethyl-6,7,7a,8,9,10,11,11a-octahydro-5H-dibenzo[a,c]cycloheptene-3-carboxylic acid (2-methyl-pyridin-3-yl)-amide]
< 100 nM	CCC[C@@]1(O)CC[C@@]2(CC)c3ccc(C(=O)Nc4cccnc4C)cc3COC[C@H]2C1 (racemic) [Example 136, (7aS,9R,11aR)-11a-Ethyl-9-propyl-9-hydroxy-N-(2-methylpyridin-3-yl)-5,7,7a,8,9,10,11,11a-octahydrodibenzo[c,e]oxepine-3-carboxamide; compound with (7aR,9S,11aS)-11a-ethyl-9-propyl-9-hydroxy-N-(2-methylpyridin-3-yl)-5,7,7a,8,9,10,11,11a-octahydrodibenzo[c,e]oxepine-3-carboxamide]
< 100 nM	CCCOC[C@@]1(O)CC[C@@]2(Cc3ccccc3)c3ccc(C(=O)Nc4cccnc4C)cc3CCC[C@H]2C1 [Example 98]
< 100 nM	Cc1ncccc1NC(=O)c1ccc2c(c1)CCCC1CC(O)(COC(C)C(F)(F)F)CCC21Cc1ccccc1 (mixture of isomers) [Example 100]
100 to 1000 nM	CC[C@@]1(O)CC[C@@]2(Cc3ccccc3)c3ccc(C(=O)N(C)c4cccnc4C)cc3CCC[C@H]2C1 [Example 89, (7aS,9R,11aS)-11a-Benzyl-9-ethyl-9-hydroxy-6,7,7a,8,9,10,11,11a-octahydro-5H-dibenzo[a,c]cycloheptene-3-carboxylic acid methyl-(2-methyl-pyridin-3-yl)-amide]
< 100 nM	CC[C@@]1(O)CC[C@@]2(Cc3ccccc3)c3ccc(C(=O)NCc4cccnc4C)cc3CCC[C@H]2C1 [Example 83, (7aS,9R,11aS)-11a-Benzyl-9-ethyl-9-hydroxy-6,7,7a,8,9,10,11,11a-octahydro-5H-dibenzo[a,c]cycloheptene-3-carboxylic acid (2-methyl-pyridin-3-ylmethyl)-amide]
100 to 1000 nM	CCC[C@@]1(O)CC[C@@]2(CC)c3ccc(C(=O)Nc4cccnc4C)cc3C=CC[C@H]2C1 (single isomer, unassigned) [Example 129]
< 100 nM	CCCOC[C@@]1(O)CC[C@@]2(Cc3ccccc3)c3ccc(C(=O)Nc4cccnc4C)cc3CCC[C@H]2C1 (racemic) [Example 101]
< 100 nM	Cc1ncccc1NC(=O)c1ccc2c(c1)CCC[C@H]1C[C@@](O)(COC3CCOCC3)CC[C@@]21Cc1ccccc1 (racemic) [Example 102]
> 10000 nM	Cc1ncccc1NC(=O)c1ccc2c(c1)COC(=O)[C@H]1CC(=O)CC[C@@]21Cc1ccccc1 [Example 110, (7aS,11aS)-11a-Benzyl-N-(2-methylpyridin-3-yl)-7,9-dioxo-5,7,7a,8,9,10,11,11a-octahydrodibenzo[c,e]oxepine-3-carboxamide]
> 10000 nM	CC[C@]1(O)CC[C@]2(CC)c3ccc(C(=O)Nc4cccnc4C)cc3COC[C@@H]2C1 [Example 141]
